The source of these data is US20250186470A1, “Compositions and Methods Using Lactulose for Treating Disease” (THE UNIVERSITY OF CHICAGO, priority 2023, published 2025).

Each structure is given as a SMILES string.

Holding throughout (assay type): in vivo, human
The subject of one assay is Bifidobacteria. Nature of the assay: Fecal shotgun metagenomics of hospitalized liver disease patients stratified by lactulose exposure: Bifidobacteria abundance. The note with it: for Regression estimate, association with Bifidobacteria abundance: Table S1, factors lactulose, PPI, stool consistency, antibiotics.
Assay [1] in a line: 90-day survival of liver disease patients, Kaplan-Meier and Cox proportional hazards. The note with it: Table S10, covariate Lactulose, Bifido >10%, model also has MELD-Na, age and sex at enrollment. How it is done: FIGS. 5A-5H: Bifidobacteria expansion and associated metabolite production are associated with decreased incidence of systemic infection and prolonged survival. (A) A Linear discriminant analysis effect size (LEfSe) showing the significant (Wilcoxon rank-sum, two-tailed, p≤0.05) effect sizes of taxa between groups. (B) Acetate (mM) and taurocholic acid (μg/mL) were quantified, and (C) conversion from conjugated-primary BA to primary BA and then to secondary BAs was tested for each sample. Each point represents a molar ratio for an individual sample. (A-C) Sample size: n=101 (no SBP), n=21 (SBP)). (D) LEfSe showing the significant (Wilcoxon rank-sum, two-tailed, p≤0.05) effect sizes of taxa between groups. (E) Acetate (mM) and taurocholic acid (μg/mL) were quantified, and (F) conversion from conjugated-primary BA to primary BA and then to secondary BAs was tested for each sample. Each point represents a molar ratio for an individual sample. (D-F) Sample size: n=227 (no bacteremia), n=19 (bacteremia)). (B,C,E, and F) Each point represents a single sample. Median and interquartile range are indicated by the horizontal line and box, respectively. The lower vertical line depicts Q1-1.5*IQR and the upper vertical line depicts Q3+1.5*IQR. Statistical comparisons between individual groups were analyzed using a two-tailed Wilcoxon rank sum test. […]

A further assay relates to Enterococcus. Nature of the assay: Fecal shotgun metagenomics of hospitalized liver disease patients stratified by lactulose exposure: Enterococcus abundance. The settings on record: for Regression estimate, association with Enterococcus abundance: Table S1, factors lactulose, PPI, stool consistency, antibiotics.
The mark [2] stands for this setting: lactulose treated patients, one sample per patient.
Where [3] appears, read: fecal samples from lactulose-treated patients.

Turning to `OC[C@H]1O[C@@H](O[C@@H]2[C@@H](CO)OC(O)(CO)[C@H]2O)[C@H](O)[C@@H](O)[C@H]1O` (mixture of isomers) [Lactulose, lactulose], the “Regression estimate, association with Bifidobacteria abundance” value in the assay with Bifidobacteria was 0.17. The “Regression estimate, association with Bifidobacteria abundance” value in the assay on Bifidobacteria (listed as lactulose) is reported as “positively associates”. In the assay on Bifidobacteria (setting [2]), the “Bifidobacteria abundance, mean” value was 22.2% and the “Bifidobacteria abundance, range” value is 0.0-94.7%. Further, in the assay on Bifidobacteria (lactulose within 7 days prior to sample collection, one sample per patient), the “Fecal samples having ≥10% Bifidobacteria abundance” value turned out to be 45.2%. The Bifidobacteria density result in the assay on Bifidobacteria (patients without antibiotics in the preceding 7 days, lactulose-treated vs not) is “significantly increased”. Besides, in assay [1], the “Estimate (Cox proportional hazards coefficient)” value was −0.87 and the “Exp (coef)” value was 0.42. Besides, in the assay with Enterococcus, the “Regression estimate, association with Enterococcus abundance” value was 0.11. Also, the “Regression estimate, association with Enterococcus abundance” value in the assay with Enterococcus (listed as lactulose) is given as “positively associates”. In the assay with Enterococcus (setting [3]), the “Enterococcus abundance, mean” value is 19.4%; the “Enterococcus abundance, median” value is given as 0.9%; the “Enterococcus abundance, range” value is reported as 0.0-100%.
